Source: patent US10219516B2, “Molecules having pesticidal utility, and intermediates, compositions, and processes, related thereto” (priority 2015, dated 2019)
Where two headings read alike, the source gives them in different places.

Legend:
Type in all cases: in vivo
[1] = system: Cabbage Looper (Trichoplusia ni, TRIPNI); test: Bioassay on Cabbage Looper (CL), 128-well diet tray assay; details: Trichoplusia ni
In short: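 Second-instar larvae, one to five per well, were placed on artificial diet surface-treated with 50 μg/cm^2 test molecule applied in 90:10 acetone-water and dried, eight wells per molecule. Trays were covered, vented and held at 25° C., 14:10 light-dark for five to seven days; percent mortality per well was averaged.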

[2] = system: Green Peach Aphid (Myzus persicae, MYZUPE); test: Bioassay on Green Peach Aphid (GPA), foliar spray on infested cabbage seedlings; details: 72 h
In short: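 Cabbage seedlings (2-3 true leaves) infested with 20-50 wingless adult and nymph aphids one day before treatment; sprayed to runoff at 200 ppm in 0.025% Tween 20 water with 20% acetone/methanol, four pots per treatment. Held three days at about 25° C; live aphids counted, % control by Abbott's correction versus solvent check.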

[3] = system: Beet Armyworm (Spodoptera exigua, LAPHEG); test: Bioassay on Beet Armyworm (BAW), 128-well diet tray assay
In short: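 Percent mortality, averaged across eight replicate wells, was scored after five to seven days at 25° C. under a 14:10 light-dark cycle. Each well's diet carried 50 μg/cm^2 of the dried test molecule and held one to five second instar larvae.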

[4] = system: Yellow Fever Mosquito (Aedes aegypti, AEDSAE); test: Bioassay on Yellow Fever Mosquito (YFM), 96-well plate larval assay; details: for YFM (Biological Results, rating): Species YFM (Yellow Fever Mosquito); for YFM rating: Yellow Fever Mosquito, 96-well plate larval assay
In short: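 Aedes aegypti larvae (about 1 day old) in liver-powder water were added to plates dispensed from DMSO master plates (4000 ppm stock) diluted with 90:10 water/acetone; six replicate plates per master. Lidded plates were held at room temperature for 3 days, then each well was scored for mortality.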

[5] = Species CL (Cabbage Looper), read-out: CL (Biological Results, rating)
[6] = foliar, Species GPA (Green Peach Aphid), read-out: GPA (Biological Results, rating)
[7] = Species BAW (Beet Armyworm), read-out: BAW (Biological Results, rating)
[8] = Cabbage Looper, 128-well diet tray assay, read-out: CL rating
[9] = Green Peach Aphid, foliar spray on cabbage seedlings, read-out: GPA rating
[10] = Beet Armyworm, 128-well diet tray assay, read-out: BAW rating

| Structure (SMILES) | pest or weed control at 50 µg/cm2 [1, 5] | pest or weed control at 200 µg/mL [2, 6] | pest or weed control at 50 µg/cm2 [3, 7] | YFM (Biological Results, rating) [4] | pest or weed control at 50 µg/cm2 [1, 8] | pest or weed control at 200 µg/mL [2, 9] | pest or weed control at 50 µg/cm2 [3, 10] | YFM rating [4] |
| --- | --- | --- | --- | --- | --- | --- | --- | --- |
| N#Cc1ccc(NC(=O)c2cc(NC(=O)[C@H]3[C@H](c4cc(Cl)cc(Cl)c4)C3(Cl)Cl)ccc2Cl)cn1 (relative stereo) [F33, trans-2-Chloro-N-(6-cyanopyridin-3-yl)-5-(2,2-dichloro-3-(3,5-dichlorophenyl)cyclopropane-1-carboxamido)benzamide] | 50 to 100% | 0 to 80% | 50 to 100% | A (80-100) | – | – | – | – |
| O=C(Nc1ccc(F)cc1)c1cc(NC(=O)[C@H]2[C@H](c3cc(Cl)cc(Cl)c3)C2(Cl)Cl)ccc1F (relative stereo) [F129, trans-5-(2,2-Dichloro-3-(3,5-dichlorophenyl)cyclopropane-1-carboxamido)-2-fluoro-N-(4-fluorophenyl)benzamide] | 50 to 100% | 80 to 100% | 50 to 100% | A (80-100) | – | – | – | – |
| O=C(Nc1ccc(F)cc1)c1cc(NC(=O)[C@H]2[C@H](c3cc(Cl)cc(C(F)(F)F)c3)C2(Cl)Cl)ccc1Cl (relative stereo) [F87, trans-2-Chloro-5-(2,2-dichloro-3-(3-chloro-5-(trifluoromethyl)phenyl)cyclopropane-1-carboxamido)-N-(4-fluorophenyl)benzamide] | 50 to 100% | 80 to 100% | 50 to 100% | A (80-100) | – | – | – | – |
| Cc1cc(F)ccc1NC(=O)c1cc(NC(=O)[C@H]2[C@H](c3cc(Cl)cc(Cl)c3)C2(Cl)Cl)ccc1Cl (relative stereo) [F37, trans-2-Chloro-5-(2,2-dichloro-3-(3,5-dichlorophenyl)cyclopropane-1-carboxamido)-N-(4-fluoro-2-methylphenyl)benzamide] | 50 to 100% | 80 to 100% | 50 to 100% | A (80-100) | – | – | – | – |
| CN(C(=O)c1cc(NC(=O)[C@H]2[C@H](c3cc(Cl)cc(Cl)c3)C2(Cl)Cl)ccc1F)c1cccc(F)c1 (relative stereo) [F46, trans-5-(2,2-Dichloro-3-(3,5-dichlorophenyl)cyclopropane-1-carboxamido)-2-fluoro-N-(3-fluorophenyl)-N-methylbenzamide] | 50 to 100% | 0 to 80% | 50 to 100% | A (80-100) | – | – | – | – |
| CN(C(=O)c1cccc(NC(=O)[C@H]2[C@H](c3cc(Cl)cc(Cl)c3)C2(Cl)Cl)c1F)c1ccc(F)cc1 (relative stereo) [F47, trans-3-(2,2-Dichloro-3-(3,5-dichlorophenyl)cyclopropane-1-carboxamido)-2-fluoro-N-(4-fluorophenyl)-N-methylbenzamide] | 50 to 100% | 0 to 80% | 50 to 100% | B (More than 0-Less than 80) | – | – | – | – |
| O=C(Nc1cccnc1)c1cc(NC(=O)[C@H]2[C@H](c3cc(Cl)cc(Cl)c3)C2(Cl)Cl)ccc1Cl (relative stereo) [F27, trans-2-Chloro-5-(2,2-dichloro-3-(3,5-dichlorophenyl)cyclopropane-1-carboxamido)-N-(pyridin-3-yl)benzamide] | 50 to 100% | 0 to 80% | 50 to 100% | A (80-100) | – | – | – | – |
| Cc1cc(C#N)ccc1NC(=O)c1cc(NC(=O)[C@H]2[C@H](c3cc(Cl)cc(Cl)c3)C2(Cl)Cl)ccc1Cl (relative stereo) [F36, trans-2-Chloro-N-(4-cyano-2-methylphenyl)-5-(2,2-dichloro-3-(3,5-dichlorophenyl)cyclopropane-1-carboxamido)benzamide] | 50 to 100% | 0 to 80% | 50 to 100% | A (80-100) | – | – | – | – |
| O=C(Nc1cccc([N+](=O)[O-])c1)c1cc(NC(=O)[C@H]2[C@H](c3cc(Cl)cc(Cl)c3)C2(Cl)Cl)ccc1Cl (relative stereo) [PF73, trans-2-Chloro-5-(2,2-dichloro-3-(3,5-dichlorophenyl)cyclopropane-1-carboxamido)-N-(3-nitrophenyl)benzamide] | – | – | – | – | 50 to 100% | 80 to 100% | 50 to 100% | B (More than 0-Less than 80) |
| CCN(C(=O)c1cc(NC(=O)[C@H]2[C@H](c3cc(Cl)cc(Cl)c3)C2(Cl)Cl)ccc1Cl)c1ccc(F)cc1 (relative stereo) [F99, trans-2-Chloro-5-(2,2-dichloro-3-(3,5-dichlorophenyl)cyclopropane-1-carboxamido)-N-ethyl-N-(4-fluorophenyl)benzamide] | 50 to 100% | 80 to 100% | 50 to 100% | B (More than 0-Less than 80) | – | – | – | – |
| COc1c(NC(=O)[C@H]2[C@H](c3cc(Cl)cc(Cl)c3)C2(Cl)Cl)cccc1C(=O)Nc1ccc(F)cc1 (relative stereo) [F30, trans-3-(2,2-Dichloro-3-(3,5-dichlorophenyl)cyclopropane-1-carboxamido)-N-(4-fluorophenyl)-2-methoxybenzamide] | 50 to 100% | 0 to 80% | 50 to 100% | A (80-100) | – | – | – | – |
| O=C(Nc1ccc(F)cn1)c1cc(NC(=O)[C@H]2[C@H](c3cc(Cl)cc(Cl)c3)C2(Cl)Cl)ccc1Cl (relative stereo) [F76, trans-2-Chloro-5-(2,2-dichloro-3-(3,5-dichlorophenyl)cyclopropane-1-carboxamido)-N-(5-fluoropyridin-2-yl)benzamide] | 50 to 100% | 80 to 100% | 50 to 100% | B (More than 0-Less than 80) | – | – | – | – |
| N#Cc1cccc(NC(=O)c2cc(NC(=O)[C@H]3[C@H](c4cc(Cl)cc(Cl)c4)C3(Cl)Cl)ccc2Cl)c1 (relative stereo) [F21, trans-2-Chloro-N-(3-cyanophenyl)-5-(2,2-dichloro-3-(3,5-dichlorophenyl)cyclopropane-1-carboxamido)benzamide] | 50 to 100% | 0 to 80% | 50 to 100% | A (80-100) | – | – | – | – |
| O=C(Nc1ccc(F)cc1)c1cc(NC(=O)[C@H]2[C@H](c3ccc(Cl)c(Cl)c3)C2(Cl)Cl)ccc1F (relative stereo) [F28, trans-5-(2,2-Dichloro-3-(3,4-dichlorophenyl)cyclopropane-1-carboxamido)-2-fluoro-N-(4-fluorophenyl)benzamide] | 50 to 100% | 80 to 100% | 50 to 100% | A (80-100) | – | – | – | – |
| Cc1ccc(NC(=O)[C@H]2[C@H](c3cc(Cl)cc(Cl)c3)C2(Cl)Cl)cc1C(=O)Nc1ccc(F)cc1 (relative stereo) [F10, trans-5-(2,2-Dichloro-3-(3,5-dichlorophenyl)cyclopropane-1-carboxamido)-N-(4-fluorophenyl)-2-methylbenzamide] | 50 to 100% | 0 to 80% | 50 to 100% | A (80-100) | – | – | – | – |
| CC(C)c1ccccc1NC(=O)c1cc(NC(=O)[C@H]2[C@H](c3cc(Cl)cc(Cl)c3)C2(Cl)Cl)ccc1Cl (relative stereo) [F41, trans-2-Chloro-5-(2,2-dichloro-3-(3,5-dichlorophenyl)cyclopropane-1-carboxamido)-N-(2-isopropylphenyl)benzamide] | 50 to 100% | 0 to 80% | 50 to 100% | A (80-100) | – | – | – | – |
| COCC(=O)N(C)c1ccc(NC(=O)c2cc(NC(=O)[C@H]3[C@H](c4cc(Cl)cc(Cl)c4)C3(Cl)Cl)ccc2Cl)cc1 (relative stereo) [PF31, trans-2-Chloro-5-(2,2-dichloro-3-(3,5-dichlorophenyl)cyclopropane-1-carboxamido)-N-(4-(2-methoxy-N-methylacetamido)phenyl)benzamide] | – | – | – | – | 50 to 100% | 0 to 80% | 50 to 100% | B (More than 0-Less than 80) |
| CN(C(=O)c1cc(NC(=O)[C@H]2[C@H](c3cc(Cl)cc(Cl)c3)C2(Cl)Cl)ccc1Cl)c1cccc(F)c1 (relative stereo) [F34, trans-2-Chloro-5-(2,2-dichloro-3-(3,5-dichlorophenyl)cyclopropane-1-carboxamido)-N-(3-fluorophenyl)-N-methylbenzamide] | 50 to 100% | 0 to 80% | 50 to 100% | A (80-100) | – | – | – | – |
